{"source": "paper PMC7269146", "about": "“Jingzhaotoxin-X, a gating modifier of Kv4.2 and Kv4.3 potassium channels purified from the venom of the Chinese tarantula Chilobrachys jingzhao” (The Journal of Venomous Animals and Toxins Including …, 2020)", "system": "Kv1.1", "test": "microelectrode voltage-clamp, Xenopus laevis oocytes, Kv1.1", "format": "cell-based", "details": "10 μM, 300-ms depolarization to +20 mV from -90 mV, pH 7.5, 19-23°C, n = 3", "protocol": "Briefly, plasmids were linearized, and transcription was carried out according to the standardized protocol. Afterwards, the capped cRNAs that encoded the related ion channels were prepared. To conduct transcription in vitro, firstly, NotL was utilized to linearize plasmids pCI that contained both Kv1.1 (Accession: NM_010595.3) and Kv2.1 (Accession: AF026005.1), whereas SphI was adopted to linearize plasmid PcDNA3 containing Kv1.2 (Accession: NM_012970.3) gene. […] Thereafter, the linearized plasmids were used as the templates to synthesize cRNAs in vitro using the large-scale T7 mMESSAGE mMACHINE transcription kit (Ambion, USA).\nA mature female X. laevis was placed on the ice for anesthesia, and then the Xenopus laevis oocytes at stage IV-VI were extracted. Subsequently, those extracted oocytes were treated by collagenase (1 mg/mL) contained within the calcium-depleted ND96 solution (containing 96 mM NaCl, 10 mM HEPES, 1 mM MgCl2, and 2 mM KCl) for defolliculation. […]\nFirstly, the effects of JZTX-X on the isoforms of potassium channels (including Kv1.1-1.3, Kv2.1, as well as Kv4.2-4.3) contained within the X. laevis oocytes were investigated through the microelectrode voltage-clamp approach. […] We also determined the effects of JZTX-X on Ito potassium channels in rat DRG neurons; those current amplitudes were inhibited by 54.4±6.8% when 500 nM JZTX-X was applied (Fig. 3K, n = 5).", "note": "Where a SMILES comes first, the peptide text is derived from it. Bridges are numbered along the chain shown (N, C = ends).", "data": [{"smiles": "CC(C)C[C@@H]1NC(=O)[C@H](CCCCN)NC(=O)[C@H](Cc2ccc(O)cc2)NC(=O)[C@@H]2CSSC[C@@H]3NC(=O)[C@H](Cc4ccc(O)cc4)NC(=O)[C@H](Cc4ccccc4)NC(=O)CNC(=O)[C@H](C)NC(=O)[C@H](CSSC[C@H](NC(=O)[C@@H](N)CC(C)C)C(=O)N[C@@H](CO)C(=O)N[C@@H](CCCNC(=N)N)C(=O)N[C@@H](CCC(=O)O)C(=O)NCC(=O)N[C@@H](CCC(=O)O)C(=O)N[C@@H](Cc4ccccc4)C(=O)N2)NC(=O)[C@H](CSSC[C@@H](C(=O)N[C@@H](Cc2ccc(O)cc2)C(=O)N[C@@H](CCCNC(=N)N)C(=O)N[C@@H](CC(N)=O)C(=O)O)NC(=O)[C@H](Cc2c[nH]cn2)NC(=O)[C@H](CC(C)C)NC(=O)[C@H](C(C)C)NC(=O)[C@H](Cc2ccccc2)NC(=O)[C@H](C)NC(=O)[C@H](CCCCN)NC3=O)NC(=O)[C@H](CCCCN)NC(=O)[C@H](CCCNC(=N)N)NC1=O", "note": "[JZTX-X, Jingzhaotoxin-X] (H-LCSREGEFCYKLRKCCAGFYCKAFVLHCYRN-OH; disulfide 2-16, 9-21, 15-28; N-terminus assumed)", "values": [{"measurement": "inhibition of Kv1.1 current", "result": "less than 5%"}]}]}
